The test system of one assay is SOX-9. The experiment in a line: Anabolic gene expression in normal human primary chondrocytes, quantitative real-time PCR (SOX-9). The class given is cell-based. To be noted: carnosol at 1 µmol/L. The protocol:
(§1) Influence of carnosol on the expression of genes involved in the build-up and break-down of cartilage. Carnosol of >= 95% purity prepared as disclosed in example 1 was used.
(§2) The effect of carnosol on the expression of human collagen, aggrecan and MMP genes was measured in vitro in normal human chondrocytes (derived from knee). Control experiments without carnosol were done concomitantly to compare the expression of these genes or proteins to that in un-stimulated cells. The effect of carnosol (at 1 µmol/L) on the expression of anabolic genes (see Table B) was measured in normal human chondrocytes obtained from the knee of healthy donors (HNAC-kn, Cambrex, #CC2250). These primary chondrocytes were passaged in vitro not more than 4 times, before being used for experiments. Cells were cultured in differentiation medium (Cambrex, #CC.3225) for 5 - 10 days. Total RNA was extracted from cultured cells and reverse-transcribed; expression levels of distinct genes were determined by quantitative real-time PCR as detailed by Richard et al. Mol. Nutr. Food Res. 49, 431-442, (2005).
(§3) Effect of carnosol on anabolic gene expression in normal human primary chondrocytes Numbers indicate the level of gene expression (in % of control-treated cells)

The test system of the next assay is Aggrecan. The experiment in a line: Anabolic gene expression in normal human primary chondrocytes, quantitative real-time PCR (aggrecan). Format: cell-based. To be noted: carnosol at 1 µmol/L; for activity at 1 µM: Chondrocyte, normal human chondrocytes (knee), differentiation medium. The protocol: as §1, §2, §3
Assay [1] deals with Collagen II. The experiment in a line: Cellular collagen II production in chondrocytes, ELISA. The class given is cell-based, human. To be noted: 20 µmol/L carnosol; for Effect of carnosol on protein expression: 10 days of culture, collagen II, result in words. As to the method:
The increased build-up of the ECM has been directly shown by measuring the production of collagen II. To this aim, chondrocytes were cultured in differentiation medium containing 20 µmol/L carnosol for 10 days. Cellular collagen II was then quantified by enzyme linked immunosorbent assay (ELISA). […]
A general note: In an ELISA, binding on a coated surface is turned into a signal by an enzyme label.

Another assay deals with SOX-5. The experiment in a line: Anabolic gene expression in normal human primary chondrocytes, quantitative real-time PCR (SOX-5). The class given is cell-based. To be noted: carnosol at 1 µmol/L; for activity at 1 µM: Chondrocyte, normal human chondrocytes (knee), differentiation medium. As to the method: as §1, §2, §3
Assay [2] deals with Collagen II. The experiment in a line: Anabolic gene expression in normal human primary chondrocytes, quantitative real-time PCR (collagen II). The class given is cell-based. To be noted: carnosol at 1 µmol/L; for activity at 1 µM: Chondrocyte, normal human chondrocytes (knee), differentiation medium. The protocol:
as §1, §2, §3
Background: In qPCR the cycle at which signal appears reflects the starting amount.

The test system of the next assay is Collagen I. The experiment in a line: Anabolic gene expression in normal human primary chondrocytes, quantitative real-time PCR (collagen I). Format: cell-based. The conditions noted are these: carnosol at 1 µmol/L; for activity at 1 µM: Chondrocyte, normal human chondrocytes (knee), differentiation medium. As to the method:
as §1, §2, §3

[3] abbreviates: normal human chondrocytes, result in words.

We go through one molecule from patent EP2052721A1, “Use of carnosol for cartilage repair” (DSM IP Assets B.V., priority 2007, dated 2009).

“Also recorded” adds a separate entry of the source. Like-named read-outs stand apart in the source and are kept apart here.

On to `CC(C)c1cc2c(c(O)c1O)[C@@]13CCCC(C)(C)[C@@H]1C[C@@H]2OC3=O` [Carnosol, 2H-9,4a-(Epoxymethano)phenanthren-12-one], for which the mrna remaining at 1 µM in the assay on SOX-9 (Chondrocyte, 120 h, normal human chondrocytes (knee), differentiation medium, 5 days culture, read-out: level of gene expression, SOX-9, 5 days culture) amounted to 112%. Besides, in the assay with SOX-9 (Chondrocyte, 240 h, normal human chondrocytes (knee), differentiation medium, 10 days culture, read-out: level of gene expression, SOX-9, 10 days culture), the SOX-9 gene expression, % of control at 1 µM was found to be 93%. Also, in the assay on SOX-9 (setting [3]), the “effect of carnosol on gene expression, SOX-9” value was “enhanced; also recorded: Increased”. Also, the activity at 1 µM in the assay with Aggrecan (120 h, 5 days culture, read-out: level of gene expression, Aggrecan, 5 days culture) is 139%; in the assay on Aggrecan (240 h, 10 days culture, read-out: level of gene expression, Aggrecan, 10 days culture), 97%; in the assay with SOX-5 (120 h, 5 days culture, read-out: level of gene expression, SOX-5, 5 days culture), 85%; with SOX-5 (240 h, 10 days culture, read-out: level of gene expression, SOX-5, 10 days culture), 126%; with Collagen II [2] (120 h, 5 days culture, read-out: level of gene expression, Collagen II, 5 days culture), 128%; with Collagen II [2] (240 h, 10 days culture, read-out: level of gene expression, Collagen II, 10 days culture) it was 189%. Besides, the activity at 1 µM with Collagen I (120 h, 5 days culture, read-out: level of gene expression, Collagen I, 5 days culture) turned out to be 207%; in the assay with Collagen I (240 h, 10 days culture, read-out: level of gene expression, Collagen I, 10 days culture), 98%. In addition, the “effect of carnosol on gene expression, Aggrecan” value with Aggrecan (setting [3]) is “substantially increased”. Moreover, the entries for the “Effect of carnosol on protein expression” value with Collagen II [1] and with Collagen II [1] (listed as carnosol) were “Increased” and “significantly increased”, respectively. Also, in the assay on Collagen II [1] (Homo sapiens, Chondrocyte, 240 h, 10 days of culture in differentiation medium, cellular collagen II by ELISA, vehicle = 100), the activity at 20 µM was 129%. Besides, the “effect of carnosol on gene expression, SOX-5” value in the assay with SOX-5 (setting [3]) is recorded as “enhanced; also recorded: Increased”. Also, in the assay with Collagen II [2] (setting [3]), the “effect of carnosol on gene expression, Collagen II” value is recorded as “substantially increased”. Further, the “effect of carnosol on gene expression, Collagen I” value in the assay with Collagen I (setting [3]) is listed as “Increased”.
